This note sets out measurements from ChEMBL document CHEMBL2046429, “Synthesis and biological evaluation of N-aryl salicylamides with a hydroxamic acid moiety at 5-position as novel HDAC-EGFR dual inhibitors” (Bioorg Med Chem, 2012).

pIC50: −log10 of the molar value.

The subject of test [1] is A549. Put plainly: Antiproliferative activity against human A549 cells after 48 hrs by MTT assay. Particulars: A549, 48 h. In kind it is functional, cell-based. On the technique in general: Formazan colour is commonly taken as a measure of viable cells.
For test [2], the target named is Epidermal growth factor receptor (Homo sapiens, UniProt P00533). Put plainly: Inhibition of EGFR derived from human A431 cell membrane assessed as inhibition of poly-Glu-Tyr phosphorylation after 30 mins by ELISA assay. In kind it is cell-based, A-431.
Sequence of Epidermal growth factor receptor (P00533 whole entry): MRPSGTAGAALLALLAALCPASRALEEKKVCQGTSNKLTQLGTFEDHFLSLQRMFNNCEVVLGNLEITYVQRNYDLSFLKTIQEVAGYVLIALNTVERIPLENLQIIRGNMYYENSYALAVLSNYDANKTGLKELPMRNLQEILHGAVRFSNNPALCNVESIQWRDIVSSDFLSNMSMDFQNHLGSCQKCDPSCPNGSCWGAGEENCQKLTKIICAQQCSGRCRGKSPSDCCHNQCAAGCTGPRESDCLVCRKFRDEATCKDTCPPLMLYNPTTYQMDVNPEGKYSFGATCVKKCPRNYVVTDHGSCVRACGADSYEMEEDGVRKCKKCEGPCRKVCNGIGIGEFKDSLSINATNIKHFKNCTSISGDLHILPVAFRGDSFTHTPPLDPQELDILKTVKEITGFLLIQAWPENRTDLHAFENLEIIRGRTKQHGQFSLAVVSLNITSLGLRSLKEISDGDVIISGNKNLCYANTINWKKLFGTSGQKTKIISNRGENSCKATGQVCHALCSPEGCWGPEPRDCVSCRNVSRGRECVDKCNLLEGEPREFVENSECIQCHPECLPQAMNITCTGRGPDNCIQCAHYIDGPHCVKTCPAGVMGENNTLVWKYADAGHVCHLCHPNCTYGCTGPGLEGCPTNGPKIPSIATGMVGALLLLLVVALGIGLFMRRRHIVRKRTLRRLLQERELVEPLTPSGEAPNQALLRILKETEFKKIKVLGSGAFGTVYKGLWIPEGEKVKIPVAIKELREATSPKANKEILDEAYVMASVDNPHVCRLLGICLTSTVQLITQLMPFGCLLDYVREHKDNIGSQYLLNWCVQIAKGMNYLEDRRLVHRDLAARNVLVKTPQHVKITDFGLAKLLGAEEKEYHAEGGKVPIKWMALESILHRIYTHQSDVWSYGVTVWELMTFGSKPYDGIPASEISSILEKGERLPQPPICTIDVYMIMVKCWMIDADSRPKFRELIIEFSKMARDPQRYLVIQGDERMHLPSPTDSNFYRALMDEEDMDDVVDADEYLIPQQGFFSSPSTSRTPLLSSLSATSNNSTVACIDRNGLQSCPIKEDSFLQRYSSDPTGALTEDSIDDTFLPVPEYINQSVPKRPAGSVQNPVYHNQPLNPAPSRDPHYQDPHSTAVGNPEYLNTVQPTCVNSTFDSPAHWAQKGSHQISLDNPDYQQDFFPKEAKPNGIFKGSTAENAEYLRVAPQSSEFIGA
Test [3] deals with A-431. Put plainly: Antiproliferative activity against human A431 cells after 48 hrs by MTT assay. It counts as functional, cell-based. Particulars: A-431, 48 h.
Test [4] has as its system HL-60. Put plainly: Antiproliferative activity against human HL60 cells after 48 hrs by MTT assay. In kind it is functional, cell-based. The settings on record: HL-60, 48 h.
For test [5], the target named is Histone deacetylase. Put plainly: Inhibition of HDAC derived from human HeLa cell nuclear extract using Boc-Lys(acetyl)-AMC as substrate incubated for 5 mins prior to substrate addition measured after 30 mins by fluorimetry. In kind it is protein assay.

Consider `O=C(CCCCCC(=O)Nc1ccc(O)c(C(=O)Nc2ccccc2)c1)NO`, for which the pIC50 (usually −log10 of the IC50, conventionally taken in molar units) in test [1] was 4.84; in test [2] it was 5.63; in test [3], 5.23; in test [4] it was 4.69. Further, the IC50 (usually the point on the concentration scale where inhibition reaches its midpoint) in test [5] was found to be 1.89 µM.

For the molecule `O=C(CCCCCC(=O)Nc1ccc(O)c(C(=O)Nc2cccc(F)c2)c1)NO`, the pIC50 in test [1] was 4.43; in test [2] it was 5.85; in test [3] it was 5.37; in test [4] it was less than 4.00. This molecule returned an IC50 in test [5] of 3.59 µM.

As for `O=C(CCCCCC(=O)Nc1ccc(O)c(C(=O)Nc2ccc(F)c(F)c2)c1)NO`, the pIC50 in test [1] was 4.15; in test [2], 5.65; in test [3], 5.40; in test [4] it was less than 4.00. This molecule showed an IC50 in test [5] of 6.02 µM.

Consider `O=C(CCCCCC(=O)Nc1ccc(O)c(C(=O)Nc2ccc(F)c(Cl)c2)c1)NO`, for which the pIC50 is 4.68 in test [1], 5.45 in test [2], 5.46 in test [3] and less than 4.00 in test [4]. Also, the IC50 in test [5] was 3.02 µM.

For the molecule `O=C(CCCCCC(=O)Nc1ccc(O)c(C(=O)Nc2cccc(C(F)(F)F)c2)c1)NO`, the pIC50 in test [1] is 4.59; in test [2], 5.38; in test [3] it was 5.56; in test [4], less than 4.00. The same molecule had an IC50 in test [5] of 3.19 µM.

For the molecule `C#Cc1cccc(NC(=O)c2cc(NC(=O)CCCCCC(=O)NO)ccc2O)c1`, the pIC50 in test [1] was 4.12; in test [2], 5.48; in test [3], 5.24; in test [4], less than 4.00. Besides, the IC50 in test [5] is 4.09 µM.

Take `O=C(CCCCCC(=O)Nc1ccc(O)c(C(=O)Nc2ccc(Cl)c(Cl)c2)c1)NO`: the pIC50 was 4.75 in test [1], 5.74 in test [2], 5.42 in test [3] and less than 4.00 in test [4]. Moreover, in test [5], the IC50 amounted to 3.65 µM.

Turning to `O=C(CCCCCC(=O)Nc1ccc(O)c(C(=O)Nc2ccc(Cl)c(C(F)(F)F)c2)c1)NO`, the pIC50 was 4.62 in test [1], 5.85 in test [2], 5.38 in test [3] and less than 4.00 in test [4]. The same molecule registered an IC50 in test [5] of 3.48 µM.

On to `O=C(CCCCCC(=O)Nc1ccc(O)c(C(=O)Nc2ccc(OCc3cccc(F)c3)c(Cl)c2)c1)NO`, for which the negative-log IC50 (pIC50) in test [1] was 4.91; in test [2], 5.96; in test [3] it was 5.59; in test [4] it was less than 4.00. The IC50 in test [5] was 3.01 µM.

With `C#Cc1cccc(NC(=O)c2cc(NC(=O)CCCCCCC(=O)NO)ccc2O)c1`, the pIC50 in test [1] was 4.36; in test [2], 5.65; in test [3], 5.21; in test [4] it was less than 4.00. Moreover, the IC50 in test [5] came out at 2.03 µM.

In the case of `COc1cc(O)c(C(=O)Nc2ccc(F)c(Cl)c2)cc1NC(=O)CCCCCC(=O)NO`, the half-inhibitory concentration (IC50) in test [5] was 1.09 µM.

In the case of `C#Cc1cccc(NC(=O)c2cc(NC(=O)CCCCCC(=O)NO)c(OC)cc2O)c1`, the pIC50 in test [1] was 4.74; in test [2], 5.95; in test [3], 5.33; in test [4] it was 4.54. Further, the IC50 in test [5] is 1.86 µM.

As for `C#Cc1cccc(NC(=O)c2cccc(NC(=O)CCCCCC(=O)NO)c2)c1`, the pIC50 in test [1] is 4.42; in test [2] it was 5.21; in test [3], 5.15; in test [4] it was less than 4.00. In addition, in test [5], the IC50 amounted to 3.27 µM.

For the molecule `C#Cc1cccc(NC(=O)c2cc(NC(=O)CCCCCC(=O)NO)ccc2OC)c1`, the negative logarithm of the IC50 (pIC50) in test [1] was 4.39; in test [2], 5.29; in test [3], 5.38; in test [4], 5.15. In test [5], this molecule gave an IC50 of 0.56 µM.

For `C#Cc1cccc(NC(=O)c2cc(OCCCCCCC(=O)NO)ccc2O)c1`, the pIC50 was 4.81 in test [1], 6.05 in test [2], 5.73 in test [3] and 4.51 in test [4]. This molecule also had an IC50 in test [5] of 1.21 µM.
